Test: Degree of solubility of polymerization initiators (3 mass % aqueous solution)
Format: physicochemical
Design: key: A: The polymerization initiator was fully dissolved at room temperature.; B: The polymerization initiator was slightly precipitated at room temperature, and was fully dissolved when being heated at 60° C.; The polymerization initiator was not fully dissolved even when being heated at 60° C
Details: 3 mass % aqueous solution of the polymerization initiator; room temperature / heated at 60° C.
Procedure: 3 mass % aqueous solutions were respectively prepared using Polymerization Initiators I-1 to I-5, I-8, and R-1 to R-4, and the degrees of solubility of the polymerization initiators were evaluated according to the following evaluation standards.
A: The polymerization initiator was fully dissolved at room temperature.
B: The polymerization initiator was slightly precipitated at room temperature, and was fully dissolved when being heated at 60° C.
C: The polymerization initiator was not fully dissolved even when being heated at 60° C.

Degree of solubility | Structure (SMILES)
A | C[N+](C)(CCCS(=O)(=O)[O-])CCOc1ccc2c(=O)c3ccccc3sc2c1 [Compound I-1]
C | CC(C)(O)C(=O)c1ccc(OCCO)cc1 [Compound R-1]
A | Cc1c(OCC(O)C[N+](C)(C)C)cc2c(=O)c3ccccc3sc2c1C (centres unmarked) [Compound R-2]

Structure (SMILES) | Degree of solubility
COC(OC)(C(=O)c1ccc(OCC(=O)[O-])cc1)c1ccc(OCC(=O)[O-])cc1.[Na+].[Na+] [Compound R-3] | C
CCC(Cc1ccc(S(=O)(=O)O)cc1)(C(=O)c1ccc(N2CCOCC2)cc1)N(C)C (centres unmarked) [Compound R-4] | A

From patent US9458337B2, “Curable resin composition, water-soluble ink composition, ink set, and image-forming method” (FUJIFILM CORPORATION, priority 2012, dated 2016)
